Data as given in US20070031485A1, “Pharmaceutical composition having a cationic excipient” (priority 2003, published 2007).
Like-named read-outs stand apart in the source and are kept apart here.

Columns and labels:
[1] = Critical micelle concentration; assay type: physicochemical
[2] = Stabilization of aqueous dispersion of cholesterol particles, visual appearance; assay type: physicochemical; conditions: 1% cholesterol in 0.1% w/w (3 mM) dodecyl betainate solution
Method: The ability of dodecyl betainate to stabilize aqueous dispersions of hydrophobic particles was investigated in samples containing 1% cholesterol (of lanolin origin, Fluka) in pure water and in dodecyl betainate solutions of varying concentration. The samples were prepared by weighing the components into screw-capped glass vials that were first shaken, then kept in an ultrasonic bath for 5 minutes and finally shaken again before left for inspection. The table below presents the visual appearance of samples with different surfactant concentrations at different times.

[3] = system: intestinal mucosa (small intestine segments); experiment: Using (Ussing) diffusion chamber experiments, passage of marker molecules across rat small intestine; conditions: betaine ester containing solution (0.5 % w/w) compared to control
From the text: (§1) A modified Using diffusion chamber with an exposed tissue area 1.78 cm^2 was used in the experiments. 15 to 20 cm of the small intestine, distal to the Ligament of Treitz was removed from rats (male Sprague-Dawley, 400-500 g) and used in the tests. Three rats and three segments per rat were included in each experimental group. The passage of different marker molecules, ^14C-mannitol and FITC-dextran (4400 FD4), from the mucosal to the serosal chamber were expressed as apparent permeability coefficient (Papp). The apparent permeability coefficient (Papp) to mannitol and FITC-dextran 4.400 across the intestinal mucosa was calculated from the equation: Papp (cm/s)×10-6)=dc/dt * (V/(A*C0)), where dc/dt is the change of the serosal concentration over time (mol/L/sec), V is the volume in the reservoir of the serosal side (cm^3), CO is the initial concentration of the marker in the mucosal reservoir (mol/L), and A is the exposed intestinal area in the chamber (cm^2) .
(§2) The difference in electric potential over the segments was measured before and after the experiment.

[4] = assay type: physicochemical; conditions: buffer
From the text: Surface-active betaine esters are even more susceptible to alkaline hydrolysis than non-surface active esters. The reason for the increased reactivity of surface-active betaine esters is that the ester bond will hydrolyse more readily when the surfactants are in the form of aggregates, i.e. micelles. Like all other surfactants, surface-active betaine esters form micelles at a certain concentration, the CMC, and further increase of the surfactant concentration just leads to the formation of more micelles; the concentration of free surfactant molecules stays constant. In the vast majority of applications of cationic surfactants the concentration is far above the CMC, which means that almost all surfactants are in an aggregated form. The micelles of betaine ester surfactants are highly positively charged since all the quaternary ammonium groups are located at the surface of the aggregate. The positive charges must be compensated for by negatively charged ions, so-called counterions. All types of negative ions present in the solution, including hydroxyl ions, will accumulate at the micelle surface. This means that the local concentration of hydroxyl ions will be higher in the vicinity of the micelle than in the bulk, or, differently expressed, the local pH around the micelles will be higher than in the bulk. […]

[5] = system: intestinal mucosa (small intestine segments)
From the text: as §1, §2

Method for Erythrocytes from rats: Erythrocytes from rats were washed 3 times and suspended in saline solution (0.9%) to a volume fraction of 0.025. The hemolys experiments were performed by mixing the erythrocyte suspension with surfactant solutions in a 1:1 ratio, thereby giving a finale erythrocyte volume fraction of 0.0125 and a surfactant concentration as stated in the figure. The samples were then incubated at 37° C. for 1 hour and centrifuged at 2000 g for 10 minutes. Aliquots of the supernatant was mixed with an equal volume of 15 mM C14TAC before the hemoglobin content was measured spectrophotometrically on a Lab systems iEMS Reader MF at 540 nm.
The concentrate was dispersed in saline solution by gentle stirring at room temperature just before the experiment. The resulting aqueous dispersion was tested in the same way as stated above for the surfactant solution.
The concentrations given in the figure represent the amounts of cationic surfactant in the tested solutions. […] The phosphatidyl choline used is Epikuron 200 from Degussa BioActives, a pharmaceutical grade product of soybean origin. All data are normalized to the absorbance obtained from hemolysis by the 0.5 mM tetradecyltrimethylammonium chloride sample.

Structure (SMILES)	critical micelle concentration (CMC) [1] [mM]	Visual appearance after 5 min. [2]	damage to segments, potential difference over the segments before and after treatment [3]	half-life (hydrolysis) [4] [h]	permeability of intestinal segments for marker molecules [5]	toxicity to red blood cells (relative haemolytic effect) (Erythrocytes from rats; at low concentrations, 37° C., 1 hour, compared with C14TAC)	toxicity to red blood cells (relative haemolytic effect) (Erythrocytes from rats; betaine ester co-formulated with phosphatidyl choline (weight ratio 20 to 80))
CCCCCCCCCCCCCC[N+](C)(C)C.[Cl-] [C14TAC, tetradecyltrimethylammonium chloride, reference compound]	2.5						
CCCCCCCCCCCCOC(=O)C[N+](C)(C)C [dodecyl betainate]	3.1	Turbid dispersion	no increased damage	1.5	not affected	lower than that of the stable surfactant C14TAC	further lowered
CCOC(=O)C[N+](C)(C)C [ethyl betainate, reference compound]				9			
